Data set [1] is described as follows: Plasma protein binding in mouse. In kind it is ADME, cell-free. The settings on record: read-out: PPB.
A further data set has as its target T1, P2X purinoceptor 4 (Homo sapiens, UniProt Q99571).
T1 sequence (Q99571 whole entry): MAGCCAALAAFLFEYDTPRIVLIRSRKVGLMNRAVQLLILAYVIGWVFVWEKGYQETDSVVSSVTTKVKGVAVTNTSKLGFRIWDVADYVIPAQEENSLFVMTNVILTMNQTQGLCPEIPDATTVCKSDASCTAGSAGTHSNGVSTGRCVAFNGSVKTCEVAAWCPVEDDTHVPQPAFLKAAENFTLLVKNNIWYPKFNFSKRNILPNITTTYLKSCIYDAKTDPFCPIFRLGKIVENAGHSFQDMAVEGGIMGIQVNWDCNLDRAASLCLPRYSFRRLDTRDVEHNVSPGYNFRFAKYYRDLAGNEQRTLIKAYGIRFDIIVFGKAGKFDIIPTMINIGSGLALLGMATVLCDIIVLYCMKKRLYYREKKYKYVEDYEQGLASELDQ
As to the kind of experiment: Antagonist activity at human P2X4 receptor.

Structures are written as SMILES. pIC50: −log10 of the molar value.

Broadly, the pIC50 is −log10 of the IC50, conventionally taken in molar units. For the compound `Cc1cc(F)ccc1S(=O)(=O)Nc1ccc(N2C(=O)CC(=O)Nc3c2ccc2ccccc32)cc1`, the fraction unbound in data set [1] was < 0.02. Further, the pIC50 against P2X purinoceptor 4 was 7.19.
The matching figures for `Cc1cc(F)ccc1CS(=O)(=O)Nc1ccc(N2C(=O)CC(=O)Nc3c2ccc2ccccc32)cc1`: < 0.02 and 8.10.

The record behind these values is ChEMBL document CHEMBL6109133, “Towards P2X4 Positron Emission Tomography Tracing” (J Med Chem, 2025).
